This is an account of results in patent publication US20240300932A1, “N-PHENYLIMINE DERIVATIVE AND PREPARATION METHOD AND USE THEREOF” (Guizhou University, priority 2023, published 2024).

One data set deals with Trifoliumre pensL. The data set can be described thus: Post-emergence herbicidal activity test (stem and leaf spray, pot culture). It is filed as in vivo. Particulars: 3 weeks after spraying. The gist of the method: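 Pot-grown weeds in loam (pH 7), greenhouse at 20–30 °C, sprayed once post-emergence at the 2–3-leaf stage. Compound in acetone with Tween 80 plus methyl oleate oil (1.5 L/ha), applied at 10, 5 and 2.5 g/mu by spray tower. Effect scored 3 weeks after spraying, averaged over three repeats.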

The next data set relates to Setaria viridis. Described as above. It is filed as in vivo. Particulars: 3 weeks after spraying. The procedure, abridged:
(§1)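 Pot-grown weeds in loam (pH 7, 1.63% organic matter) were spray-treated on stems and leaves at the 2- to 3-leaf stage with compound in acetone/Tween 80 plus 1.5 liters/ha methyl oleate at 10, 5 or 2.5 g/mu. Fresh-weight growth control was scored 3 weeks later as grades 0–5.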

The next data set relates to Abutilon theophrasti. The description is as above. It is filed as in vivo. Particulars: 3 weeks after spraying. The gist of the method:
as §1

The test system of a further data set is Portulaca oleracea. The description is as above. To be noted: 3 weeks after spraying. It is filed as in vivo. The procedure, abridged:
as §1

Another data set has as its system Amaranthus retroflexus. The description is as above. It counts as in vivo. Particulars: 3 weeks after spraying. The procedure, abridged:
as §1

For a further data set, the system named is Echinochloa crusgalli. The data set is described as above. It counts as in vivo. Particulars: 3 weeks after spraying. The procedure, abridged:
as §1

`Cc1ccc(Br)cc1-c1noc(COc2cc(N3C(=O)C4=C(CCCC4)C3=O)c(F)cc2Cl)n1` [Compound A1, 2-(5-((3-(5-bromo-2-tolyl)-1,2,4-oxadiazole-5-yl)methoxy)-4-chloro-2-fluorophenyl)-4,5,6,7-tetrahydro-1H-isoindole-1,3(2H)-dione] registered a melting point of 101 to 105 °C. For the same compound, the “Post-emergence herbicidal activity, Trifoliumre pensL. (grade)” value in the data set with Trifoliumre pensL. (dosage 2.5 g/mu) was 4 (Grade 4: the growth control rate is greater than or equal to 60% and less than 85%). Further, the “Post-emergence herbicidal activity, Trifoliumre pensL. (grade)” value in the data set with Trifoliumre pensL. (dosage 5 g/mu) is listed as 5 (Grade 5: the growth control rate is greater than or equal to 85%). Besides, in the data set on Trifoliumre pensL. (dosage 10 g/mu), the “Post-emergence herbicidal activity, Trifoliumre pensL. (grade)” value is recorded as 5 (Grade 5: the growth control rate is greater than or equal to 85%). The “Post-emergence herbicidal activity, S. viridis (grade)” value in the data set on Setaria viridis (dosage 2.5 g/mu) was 2 (Grade 2: the growth control rate is greater than or equal to 20% and less than 40%). The “Post-emergence herbicidal activity, S. viridis (grade)” value with Setaria viridis (dosage 5 g/mu) is 3 (Grade 3: the growth control rate is greater than or equal to 40% and less than 60%). Also, in the data set with Setaria viridis (dosage 10 g/mu), the “Post-emergence herbicidal activity, S. viridis (grade)” value was 4 (Grade 4: the growth control rate is greater than or equal to 60% and less than 85%). Besides, in the data set on Abutilon theophrasti (dosage 2.5 g/mu), the “Post-emergence herbicidal activity, A. theophrasti (grade)” value is given as 5 (Grade 5: the growth control rate is greater than or equal to 85%). Further, in the data set with Abutilon theophrasti (dosage 5 g/mu), the “Post-emergence herbicidal activity, A. theophrasti (grade)” value is listed as 5 (Grade 5: the growth control rate is greater than or equal to 85%). In addition, the “Post-emergence herbicidal activity, A. theophrasti (grade)” value with Abutilon theophrasti (dosage 10 g/mu) is 5 (Grade 5: the growth control rate is greater than or equal to 85%). The “Post-emergence herbicidal activity, P. oleracea (grade)” value in the data set with Portulaca oleracea (dosage 2.5 g/mu) is 4 (Grade 4: the growth control rate is greater than or equal to 60% and less than 85%). Further, in the data set on Portulaca oleracea (dosage 5 g/mu), the “Post-emergence herbicidal activity, P. oleracea (grade)” value is recorded as 5 (Grade 5: the growth control rate is greater than or equal to 85%). Besides, the “Post-emergence herbicidal activity, P. oleracea (grade)” value with Portulaca oleracea (dosage 10 g/mu) is listed as 5 (Grade 5: the growth control rate is greater than or equal to 85%). The “Post-emergence herbicidal activity, A. retroflexus (grade)” value in the data set with Amaranthus retroflexus (dosage 2.5 g/mu) was 5 (Grade 5: the growth control rate is greater than or equal to 85%). Besides, in the data set with Amaranthus retroflexus (dosage 5 g/mu), the “Post-emergence herbicidal activity, A. retroflexus (grade)” value was 5 (Grade 5: the growth control rate is greater than or equal to 85%). Besides, the “Post-emergence herbicidal activity, A. retroflexus (grade)” value in the data set on Amaranthus retroflexus (dosage 10 g/mu) is listed as 5 (Grade 5: the growth control rate is greater than or equal to 85%). Besides, in the data set on Echinochloa crusgalli (dosage 2.5 g/mu), the “Post-emergence herbicidal activity, E. crusgalli (grade)” value is 1 (Grade 1: the growth control rate is greater than or equal to 5% and less than 20%). Moreover, the “Post-emergence herbicidal activity, E. crusgalli (grade)” value in the data set on Echinochloa crusgalli (dosage 5 g/mu) is 2 (Grade 2: the growth control rate is greater than or equal to 20% and less than 40%). Further, the “Post-emergence herbicidal activity, E. crusgalli (grade)” value in the data set with Echinochloa crusgalli (dosage 10 g/mu) was 3 (Grade 3: the growth control rate is greater than or equal to 40% and less than 60%).
Compound `Cc1ccccc1-c1noc(COc2cc(N3C(=O)C4=C(CCCC4)C3=O)c(F)cc2Cl)n1` [Compound A2, 2-(4-chloro-2-fluoro-5-((3-(2-tolyl)-1,2,4-oxadiazole-5-yl)methoxy)phenyl)-4,5,6,7-tetrahydro-1H-isoindole-1,3(2H)-dione] showed a melting point of 161 to 167 °C. In addition, in the data set with Trifoliumre pensL. (dosage 2.5 g/mu), the “Post-emergence herbicidal activity, Trifoliumre pensL. (grade)” value is 4 (Grade 4: the growth control rate is greater than or equal to 60% and less than 85%). Further, in the data set with Trifoliumre pensL. (dosage 5 g/mu), the “Post-emergence herbicidal activity, Trifoliumre pensL. (grade)” value is reported as 5 (Grade 5: the growth control rate is greater than or equal to 85%). For the same compound, the “Post-emergence herbicidal activity, Trifoliumre pensL. (grade)” value in the data set on Trifoliumre pensL. (dosage 10 g/mu) is reported as 5 (Grade 5: the growth control rate is greater than or equal to 85%). Besides, the “Post-emergence herbicidal activity, S. viridis (grade)” value with Setaria viridis (dosage 2.5 g/mu) was 2 (Grade 2: the growth control rate is greater than or equal to 20% and less than 40%). Also, the “Post-emergence herbicidal activity, S. viridis (grade)” value in the data set on Setaria viridis (dosage 5 g/mu) was 3 (Grade 3: the growth control rate is greater than or equal to 40% and less than 60%). Moreover, in the data set on Setaria viridis (dosage 10 g/mu), the “Post-emergence herbicidal activity, S. viridis (grade)” value was 4 (Grade 4: the growth control rate is greater than or equal to 60% and less than 85%). Further, in the data set with Abutilon theophrasti (dosage 2.5 g/mu), the “Post-emergence herbicidal activity, A. theophrasti (grade)” value is on record as 5 (Grade 5: the growth control rate is greater than or equal to 85%). Further, the “Post-emergence herbicidal activity, A. theophrasti (grade)” value with Abutilon theophrasti (dosage 5 g/mu) was 5 (Grade 5: the growth control rate is greater than or equal to 85%). In addition, in the data set with Abutilon theophrasti (dosage 10 g/mu), the “Post-emergence herbicidal activity, A. theophrasti (grade)” value is 5 (Grade 5: the growth control rate is greater than or equal to 85%). In addition, the “Post-emergence herbicidal activity, P. oleracea (grade)” value in the data set with Portulaca oleracea (dosage 2.5 g/mu) was 4 (Grade 4: the growth control rate is greater than or equal to 60% and less than 85%). Moreover, the “Post-emergence herbicidal activity, P. oleracea (grade)” value in the data set on Portulaca oleracea (dosage 5 g/mu) was 5 (Grade 5: the growth control rate is greater than or equal to 85%). Besides, the “Post-emergence herbicidal activity, P. oleracea (grade)” value with Portulaca oleracea (dosage 10 g/mu) was 5 (Grade 5: the growth control rate is greater than or equal to 85%). In the data set with Amaranthus retroflexus (dosage 2.5 g/mu), the “Post-emergence herbicidal activity, A. retroflexus (grade)” value was 5 (Grade 5: the growth control rate is greater than or equal to 85%). The “Post-emergence herbicidal activity, A. retroflexus (grade)” value with Amaranthus retroflexus (dosage 5 g/mu) is listed as 5 (Grade 5: the growth control rate is greater than or equal to 85%). For the same compound, the “Post-emergence herbicidal activity, A. retroflexus (grade)” value in the data set on Amaranthus retroflexus (dosage 10 g/mu) is 5 (Grade 5: the growth control rate is greater than or equal to 85%). Besides, the “Post-emergence herbicidal activity, E. crusgalli (grade)” value with Echinochloa crusgalli (dosage 2.5 g/mu) was 1 (Grade 1: the growth control rate is greater than or equal to 5% and less than 20%). Besides, in the data set on Echinochloa crusgalli (dosage 5 g/mu), the “Post-emergence herbicidal activity, E. crusgalli (grade)” value was 2 (Grade 2: the growth control rate is greater than or equal to 20% and less than 40%). In the data set with Echinochloa crusgalli (dosage 10 g/mu), the “Post-emergence herbicidal activity, E. crusgalli (grade)” value is 3 (Grade 3: the growth control rate is greater than or equal to 40% and less than 60%).
With `CC(C)(CCl)C(=O)Nc1cc(N2C(=O)C3=C(CCCC3)C2=O)c(F)cc1Cl` [Compound D4, 3-chloro-N-(2-chloro-5-(1,3-dioxo-1,3,4,5,6,7-hexahydro-2H-isoindole-2-yl)-4-fluorophenyl)-2,2-dimethylpropionamide], the “Post-emergence herbicidal activity, Trifoliumre pensL. (grade)” value in the data set with Trifoliumre pensL. (dosage 10 g/mu) was 5 (Grade 5: the growth control rate is greater than or equal to 85%). The “Post-emergence herbicidal activity, S. viridis (grade)” value in the data set on Setaria viridis (dosage 10 g/mu) was 3 (Grade 3: the growth control rate is greater than or equal to 40% and less than 60%). Besides, in the data set on Abutilon theophrasti (dosage 10 g/mu), the “Post-emergence herbicidal activity, A. theophrasti (grade)” value is 5 (Grade 5: the growth control rate is greater than or equal to 85%). Besides, the “Post-emergence herbicidal activity, P. oleracea (grade)” value in the data set on Portulaca oleracea (dosage 10 g/mu) was 5 (Grade 5: the growth control rate is greater than or equal to 85%). In addition, in the data set with Amaranthus retroflexus (dosage 10 g/mu), the “Post-emergence herbicidal activity, A. retroflexus (grade)” value was 5 (Grade 5: the growth control rate is greater than or equal to 85%). Moreover, the “Post-emergence herbicidal activity, E. crusgalli (grade)” value in the data set on Echinochloa crusgalli (dosage 10 g/mu) is 3 (Grade 3: the growth control rate is greater than or equal to 40% and less than 60%).
As for `CCOC(=O)CC(=O)Nc1cc(N2C(=O)C3=C(CCCC3)C2=O)c(F)cc1Cl` [Compound D6, 3-((2-chloro-5-(1,3-dioxo-1,3,4,5,6,7-hexahydro-2H-isoindole-2-yl)-4-fluorophenyl)amino)-ethyl 3-oxopropanoate], the “Post-emergence herbicidal activity, Trifoliumre pensL. (grade)” value in the data set with Trifoliumre pensL. (dosage 10 g/mu) is reported as 5 (Grade 5: the growth control rate is greater than or equal to 85%). The “Post-emergence herbicidal activity, S. viridis (grade)” value with Setaria viridis (dosage 10 g/mu) is 3 (Grade 3: the growth control rate is greater than or equal to 40% and less than 60%). The “Post-emergence herbicidal activity, A. theophrasti (grade)” value in the data set with Abutilon theophrasti (dosage 10 g/mu) is given as 5 (Grade 5: the growth control rate is greater than or equal to 85%). Also, the “Post-emergence herbicidal activity, P. oleracea (grade)” value in the data set with Portulaca oleracea (dosage 10 g/mu) is listed as 5 (Grade 5: the growth control rate is greater than or equal to 85%). The “Post-emergence herbicidal activity, A. retroflexus (grade)” value in the data set on Amaranthus retroflexus (dosage 10 g/mu) is recorded as 5 (Grade 5: the growth control rate is greater than or equal to 85%). The “Post-emergence herbicidal activity, E. crusgalli (grade)” value with Echinochloa crusgalli (dosage 10 g/mu) was 3 (Grade 3: the growth control rate is greater than or equal to 40% and less than 60%).
As to `CCCCCCCCC(=O)Nc1cc(N2C(=O)C3=C(CCCC3)C2=O)c(F)cc1Cl` [Compound D7, N-(2-chloro-5-(1,3-dioxo-1,3,4,5,6,7-hexahydro-2H-isoindole-2-yl)-4-fluorophenyl)nonanamide], in the data set with Trifoliumre pensL. (dosage 10 g/mu), the “Post-emergence herbicidal activity, Trifoliumre pensL. (grade)” value is 5 (Grade 5: the growth control rate is greater than or equal to 85%). Also, the “Post-emergence herbicidal activity, S. viridis (grade)” value with Setaria viridis (dosage 10 g/mu) was 4 (Grade 4: the growth control rate is greater than or equal to 60% and less than 85%). Further, the “Post-emergence herbicidal activity, A. theophrasti (grade)” value in the data set with Abutilon theophrasti (dosage 10 g/mu) is reported as 5 (Grade 5: the growth control rate is greater than or equal to 85%). Besides, in the data set on Portulaca oleracea (dosage 10 g/mu), the “Post-emergence herbicidal activity, P. oleracea (grade)” value is listed as 5 (Grade 5: the growth control rate is greater than or equal to 85%). Besides, the “Post-emergence herbicidal activity, A. retroflexus (grade)” value in the data set with Amaranthus retroflexus (dosage 10 g/mu) was 5 (Grade 5: the growth control rate is greater than or equal to 85%). The “Post-emergence herbicidal activity, E. crusgalli (grade)” value in the data set with Echinochloa crusgalli (dosage 10 g/mu) is 3 (Grade 3: the growth control rate is greater than or equal to 40% and less than 60%).

In general, melting point refers to the temperature of the solid-liquid transition.
